What was measured:
Assay in all cases: Test C pre-/postemergence herbicide test
cupgrass, woolly = assay type: in vivo, Eriochloa villosa
Method in brief: (§1)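 Visual rating, 0 (no effect) to 100 (complete control), versus untreated controls after 13 to 15 days in the greenhouse. Pre: seeds in loam/sand, sprayed at planting. Post: 1- to 4-leaf plants (2 to 18 cm) in peat-based mix. Compounds in non-phytotoxic solvent plus surfactant.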

sunflower = assay type: in vivo, Helianthus annuus; details: Preemergence
Method in brief: as §1

cocklebur = assay type: in vivo, Xanthium strumarium
Method in brief: as §1

nightshade = assay type: in vivo, Solanum ptycanthum; details: Preemergence
Method in brief: as §1

Russian thistle = assay type: in vivo, Salsola kali; details: Preemergence
Method in brief: as §1

surinam grass = assay type: in vivo, Brachiaria decumbens
Method in brief: as §1

foxtail, green = assay type: in vivo, Setaria viridis
Method in brief: as §1

bermudagrass = assay type: in vivo, Cynodon dactylon
Method in brief: as §1

goosegrass = assay type: in vivo, Eleusine indica
Method in brief: as §1

bromegrass, downy = assay type: in vivo, Bromus tectorum
Method in brief: as §1

[1] = Postemergence, 31 g ai/ha, scale 0 (no effect) to 100 (complete control)
[2] = Postemergence, 62 g ai/ha, scale 0 to 100 (0 no effect, 100 complete control)
[3] = Postemergence, 125 g ai/ha, scale 0 to 100 (0 no effect, 100 complete control)
[4] = Postemergence, 250 g ai/ha, scale 0 to 100 (0 no effect, 100 complete control)
[5] = Preemergence, 31 g ai/ha, scale 0 to 100, 0 is no effect and 100 is complete control
[6] = Preemergence, 62 g ai/ha, scale 0 to 100
[7] = Preemergence, 125 g ai/ha, scale 0 to 100 (0 no effect, 100 complete control)
[8] = 31 g ai/ha, scale 0 to 100, 0 is no effect and 100 is complete control
[9] = 125 g ai/ha, scale 0 to 100 (0 no effect, 100 complete control)
[10] = Preemergence, 31 g ai/ha, scale 0 to 100 (0 no effect, 100 complete control)
[11] = Preemergence, 250 g ai/ha, scale 0 to 100 (0 no effect, 100 complete control)

O=C1NCC(c2ccccc2)C1C(=O)Nc1ccccc1F (racemic) [Compound 81]
Plant response rating, Cupgrass, Woolly (cupgrass, woolly; [1]): 0
Plant response rating, Cupgrass, Woolly (cupgrass, woolly; [2]): 0
Plant response rating, Cupgrass, Woolly (cupgrass, woolly; [3]): 0
Plant response rating, Cupgrass, Woolly (cupgrass, woolly; [4]): 0
Cupgrass, Woolly plant response rating (cupgrass, woolly; [5]): 0
Plant response rating, Cupgrass, Woolly (cupgrass, woolly; [6]): 32
Plant response rating, Cupgrass, Woolly (cupgrass, woolly; [7]): 67
Plant response rating (scale of 0 to 100), Cupgrass, Woolly (cupgrass, woolly; Preemergence, 250 g ai/ha): 82
Sunflower plant response rating (sunflower; [8]): 0
Plant response rating Sunflower (sunflower; 62 g ai/ha, scale 0 to 100): 0
Plant response rating Sunflower (sunflower; [9]): 0
Plant response rating (scale of 0 to 100), Sunflower (sunflower; 250 g ai/ha): 0
Plant response rating, Cocklebur (cocklebur; [1]): 0
Plant response rating, Cocklebur (cocklebur; [2]): 0
Plant response rating, Cocklebur (cocklebur; [3]): 0
Plant response rating, Cocklebur (cocklebur; [4]): 0
Cocklebur plant response rating (cocklebur; [5]): 0
Plant response rating, Cocklebur (cocklebur; [6]): 0
Plant response rating, Cocklebur (cocklebur; [7]): 0
Plant response rating (scale of 0 to 100), Cocklebur (cocklebur; Preemergence, 250 g ai/ha): 0
Nightshade plant response rating (nightshade; [8]): 0
Plant response rating, Nightshade (nightshade; 62 g ai/ha, scale 0 to 100): 0
Plant response rating, Nightshade (nightshade; [9]): 0
Plant response rating (scale of 0 to 100), Nightshade (nightshade; 250 g ai/ha): 0
Russian Thistle plant response rating (Russian thistle; [8]): 0
Plant response rating, Russian Thistle (Russian thistle; 62 g ai/ha, scale 0 to 100): 0
Plant response rating, Russian Thistle (Russian thistle; [9]): 0
Plant response rating (scale of 0 to 100), Russian Thistle (Russian thistle; 250 g ai/ha): 0
Plant response rating, Surinam Grass (surinam grass; [1]): 0
Plant response rating, Surinam Grass (surinam grass; [2]): 0
Plant response rating, Surinam Grass (surinam grass; [3]): 0
Plant response rating, Surinam Grass (surinam grass; [4]): 0
Surinam Grass plant response rating (surinam grass; [5]): 0
Plant response rating, Surinam Grass (surinam grass; [6]): 53
Plant response rating, Surinam Grass (surinam grass; [7]): 77
Plant response rating (scale of 0 to 100), Surinam Grass (surinam grass; Preemergence, 250 g ai/ha): 90
Plant response rating, Foxtail, Green (foxtail, green; [1]): 5
Plant response rating, Foxtail, Green (foxtail, green; [2]): 5
Plant response rating, Foxtail, Green (foxtail, green; [3]): 20
Plant response rating, Foxtail, Green (foxtail, green; [4]): 48
Foxtail, Green plant response rating (foxtail, green; [5]): 20
Plant response rating, Foxtail, Green (foxtail, green; [6]): 67
Plant response rating, Foxtail, Green (foxtail, green; [7]): 80
Plant response rating (scale of 0 to 100), Foxtail, Green (foxtail, green; Preemergence, 250 g ai/ha): 90
Plant response rating, Bermudagrass (bermudagrass; [1]): 0
Plant response rating, Bermudagrass (bermudagrass; [2]): 0
Plant response rating, Bermudagrass (bermudagrass; [3]): 0
Plant response rating, Bermudagrass (bermudagrass; [4]): 0
Bermudagrass plant response rating (bermudagrass; [5]): 0
Plant response rating, Bermudagrass (bermudagrass; [6]): 0
Plant response rating, Bermudagrass (bermudagrass; [7]): 0
Plant response rating (scale of 0 to 100), Bermudagrass (bermudagrass; Preemergence, 250 g ai/ha): 0
Plant response rating, Goosegrass (goosegrass; [1]): 0
Plant response rating, Goosegrass (goosegrass; [2]): 0
Plant response rating, Goosegrass (goosegrass; [3]): 0
Plant response rating, Goosegrass (goosegrass; [4]): 0
Goosegrass plant response rating (goosegrass; [5]): 0
Plant response rating, Goosegrass (goosegrass; [6]): 0
Plant response rating, Goosegrass (goosegrass; [7]): 0
Plant response rating (scale of 0 to 100), Goosegrass (goosegrass; Preemergence, 250 g ai/ha): 0
Plant response rating, Bromegrass, Downy (bromegrass, downy; [1]): 0
Plant response rating, Bromegrass, Downy (bromegrass, downy; [2]): 0
Plant response rating, Bromegrass, Downy (bromegrass, downy; [3]): 0
Plant response rating, Bromegrass, Downy (bromegrass, downy; [4]): 7
Bromegrass, Downy plant response rating (bromegrass, downy; [5]): 0
Plant response rating, Bromegrass, Downy (bromegrass, downy; [6]): 0
Plant response rating, Bromegrass, Downy (bromegrass, downy; [7]): 0
Plant response rating (scale of 0 to 100), Bromegrass, Downy (bromegrass, downy; Preemergence, 250 g ai/ha): 0

O=C1NCC(c2ccc(F)cc2)C1C(=O)Nc1ccccc1F (racemic) [Compound 16]
Cupgrass, Woolly plant response rating (cupgrass, woolly; [10]): 55
Plant response rating, Cupgrass, Woolly (cupgrass, woolly; [6]): 95
Plant response rating, Cupgrass, Woolly (cupgrass, woolly; [7]): 95
Plant response rating, Cupgrass, Woolly (cupgrass, woolly; [11]): 95
Plant response rating Sunflower (sunflower; 62 g ai/ha, scale 0 to 100): 0
Plant response rating Sunflower (sunflower; [9]): 0
Cocklebur plant response rating (cocklebur; [10]): 0
Plant response rating, Cocklebur (cocklebur; [6]): 0
Plant response rating, Cocklebur (cocklebur; [7]): 0
Plant response rating, Cocklebur (cocklebur; [11]): 0
Plant response rating, Nightshade (nightshade; 62 g ai/ha, scale 0 to 100): 0
Plant response rating, Nightshade (nightshade; [9]): 0
Plant response rating, Russian Thistle (Russian thistle; 62 g ai/ha, scale 0 to 100): 0
Plant response rating, Russian Thistle (Russian thistle; [9]): 0
Plant response rating, Surinam Grass (surinam grass; [6]): 95
Plant response rating, Surinam Grass (surinam grass; [7]): 98
Foxtail, Green plant response rating (foxtail, green; [10]): 5
Plant response rating, Foxtail, Green (foxtail, green; [6]): 35
Plant response rating, Foxtail, Green (foxtail, green; [7]): 80
Plant response rating, Foxtail, Green (foxtail, green; [11]): 90
Bermudagrass plant response rating (bermudagrass; [10]): 0
Plant response rating, Bermudagrass (bermudagrass; [6]): 0
Plant response rating, Bermudagrass (bermudagrass; [7]): 90
Plant response rating, Bermudagrass (bermudagrass; [11]): 95
Goosegrass plant response rating (goosegrass; [10]): 0
Plant response rating, Goosegrass (goosegrass; [6]): 0
Plant response rating, Goosegrass (goosegrass; [7]): 0
Bromegrass, Downy plant response rating (bromegrass, downy; [10]): 0
Plant response rating, Bromegrass, Downy (bromegrass, downy; [6]): 5
Plant response rating, Bromegrass, Downy (bromegrass, downy; [7]): 30
Plant response rating, Bromegrass, Downy (bromegrass, downy; [11]): 35

O=C1NCC(c2ccc3c(c2)OC(F)(F)O3)C1C(=O)Nc1cccc(F)c1F (centres unmarked) [Compound 62]
Cupgrass, Woolly plant response rating (cupgrass, woolly; [10]): 65
Plant response rating, Cupgrass, Woolly (cupgrass, woolly; [6]): 75
Plant response rating, Cupgrass, Woolly (cupgrass, woolly; [7]): 80
Plant response rating, Cupgrass, Woolly (cupgrass, woolly; [11]): 85
Plant response rating Sunflower (sunflower; 62 g ai/ha, scale 0 to 100): 20
Plant response rating Sunflower (sunflower; [9]): 25
Cocklebur plant response rating (cocklebur; [10]): 0
Plant response rating, Cocklebur (cocklebur; [7]): 0
Plant response rating, Cocklebur (cocklebur; [11]): 5
Plant response rating, Nightshade (nightshade; 62 g ai/ha, scale 0 to 100): 15
Plant response rating, Russian Thistle (Russian thistle; 62 g ai/ha, scale 0 to 100): 30
Plant response rating, Russian Thistle (Russian thistle; [9]): 85
Plant response rating, Surinam Grass (surinam grass; [6]): 60
Plant response rating, Surinam Grass (surinam grass; [7]): 80
Foxtail, Green plant response rating (foxtail, green; [10]): 75
Plant response rating, Foxtail, Green (foxtail, green; [6]): 90
Plant response rating, Foxtail, Green (foxtail, green; [7]): 90
Plant response rating, Foxtail, Green (foxtail, green; [11]): 90
Bermudagrass plant response rating (bermudagrass; [10]): 0
Plant response rating, Bermudagrass (bermudagrass; [6]): 30
Plant response rating, Bermudagrass (bermudagrass; [7]): 50
Plant response rating, Bermudagrass (bermudagrass; [11]): 60
Goosegrass plant response rating (goosegrass; [10]): 10
Plant response rating, Goosegrass (goosegrass; [6]): 25
Plant response rating, Goosegrass (goosegrass; [7]): 70
Bromegrass, Downy plant response rating (bromegrass, downy; [10]): 0
Plant response rating, Bromegrass, Downy (bromegrass, downy; [6]): 0
Plant response rating, Bromegrass, Downy (bromegrass, downy; [7]): 0
Plant response rating, Bromegrass, Downy (bromegrass, downy; [11]): 0

— patent US10294202B2, “Pyrrolidinones as herbicides” (FMC Corporation, priority 2013, dated 2019)
